Laboratory results: US7812022B2 (GlaxoSmithKline LLC, priority 2004, dated 2010)

How the values were obtained:
ErbB2 or EGFR = target: T1, ErbB2 or EGFR; assay: ErbB family substrate phosphorylation enzyme assay (HTRF), Method A or Method B; format: biochemical
T1 construct: enzymes purified from a baculovirus expression system; Reagent production was conducted essentially as described in Brignola, P. S., et al, (2002) J. Biol. Chem. 277(2): 1576-1585
In short: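 Baculovirus-expressed EGFR or ErbB2 (0.8 or 10 nM in enzyme mix) phosphorylates biotinylated Peptide C with 20 µM ATP and 0.8 µM peptide (substrate-mix levels), MnCl2, pH 7.5. Reaction ran 90 min at 20 °C with EDTA stop and HTRF anti-phosphotyrosine read. Method A: enzyme added last; Method B: 1 h enzyme–compound preincubation.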

[1] = test system: BT474 and HN5 tumor cell lines; assay: Methylene blue growth inhibition assay (cellular Method A); format: cell-based, Human; conditions: Homo sapiens, BT-474, 72 h, 3 days, read-out: Activity (Method): growth inhibition IC50 class
In short: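 Growth inhibition measured by methylene blue staining of biomass (OD 620) after 3 days' compound exposure at 37° C, final DMSO 0.3%. Cell lines: BT474 (10,000/well), HN5 (3,000/well) and Colo205, all in DMEM with 10% FBS; IC50 fitted by nonlinear regression against vehicle-treated wells.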

Colo205 tumor cell lines = assay: Methylene blue growth inhibition assay (cellular Method A), Colo205; format: cell-based, Human; conditions: Homo sapiens, COLO 205, 72 h, 3 days, read-out: Activity (Method): growth inhibition IC50 class
Description: Human breast (BT474) and head and neck (HN5) were cultured in low glucose DMEM (Life Technologies 12320-032) containing 10% fetal bovine serum (FBS). Human colon tumor cells (Colo205) were cultured in DMEM (Invitrogen, 10564) containing 10% FBS. The SV40 transformed human mammary epithelial cell line HB4a was transfected with either human H-ras cDNA (HB4a r4.2) or the human c-ErbB2 cDNA (HB4a c5.2). The HB4a clones were cultured in RPMI containing 10% FBS, insulin (5 g/mL), hydrocortisone (5 g/mL), supplemented with the selection agent hygromycin B (50 g/mL). All lines were grown in a humidified incubator at 37° C. in 95% air, 5% CO2. Cells were harvested using trypsin/EDTA, counted using a haemocytometer, and plated in 100 microliters of the appropriate media, at the following densities, in a 96-well tissue culture plate (Falcon 3075): BT474 10,000 cells/well, HN5 3,000 cells/well. The next day, compounds were diluted in DMEM containing […] gentamicin, at twice the final required concentration, from 10 mM stock solutions in DMSO. 100 microliters/well of these dilutions were added to the 100 microliters of media currently on the cell plates. Medium containing 0.6% DMSO was added to control wells. Compounds diluted in DMEM were added to all cell lines. The final concentration of DMSO in all wells was 0.3%. Cells were returned to the incubator (37° C., 10% CO2) for 3 days. Medium was then removed by aspiration. Cell biomass was estimated by staining cells with 90 microliters per well methylene blue (Sigma M9140, 0.5% in 1:1 ethanol:water), and incubation at rt for at least 30 minutes. Stain was removed, and the plates rinsed by immersion in deionized water and air-dried. To release stain from the cells 100 microliters of solubilization solution was added (1% N-lauroyl sarcosine, Sodium salt, Sigma L5125, in PBS), and plates were shaken gently for about 30 minutes. Optical density at 620 nm was measured on a microplate reader. Percent inhibition of cell growth was calculated relative to vehicle treated control wells. Concentration of compound that inhibits 50% of control cell growth (IC50) was interpolated using nonlinear regression (Levenberg-Marquardt) and the equation, y=Vmax*(1−(x/(K+x)))+Y2, where “K” was equal to the IC50. Method B: Celltiter Glo® Growth Inhibition Assays

[2] = Method B: enzyme mix pre-incubated with compound 1 hour at 20° C., started with substrate mix
[3] = Method A: substrate mix added first, reaction started with enzyme mix

SMILES	Activity (Method): pIC50 class against ErbB2 or EGFR (ErbB2 or EGFR; [2])	IC50 [1] [nM]	IC50 (Colo205 tumor cell lines) [nM]	Activity (Method): pIC50 class against ErbB2 or EGFR (ErbB2 or EGFR; [3])
COc1ccc(-c2nn3ccccc3c2-c2ccnc(Nc3cccc(CN(C)C)c3)n2)cc1NC(=O)c1c(F)cccc1F [Example 192, N-[5-{3-[2-({3-[(dimethylamino)methyl]phenyl}amino)-4-pyrimidinyl]pyrazolo[1,5-a]pyridin-2-yl}-2-(methyloxy)phenyl]-2,6-difluorobenzamide]	+ (B) (no pIC50 measurement greater than 6 against either ErbB2 or EGFR)	> 1000	> 1000	
CN(C)CCCOc1cccc(Nc2nccc(-c3c(-c4cccc(NC(=O)c5c(F)cccc5F)c4)nn4ccccc34)n2)c1 [Example 198, N-[3-(3-{2-[(3-{[3-(dimethylamino)propyl]oxy}phenyl)amino]-4-pyrimidinyl}pyrazolo[1,5-a]pyridin-2-yl)phenyl]-2,6-difluorobenzamide]	+++ (B) (at least one pIC50 measurement of greater than 7 against either ErbB2 or EGFR)	< 100	100 to 1000	
CN1CCC[C@H]1COc1ccc(Nc2nccc(-c3c(-c4cccc(NC(=O)c5c(F)cccc5F)c4)nn4ccccc34)n2)cc1F [Example 132, 2,6-Difluoro-N-{3-[3-(2-{[3-fluoro-4-({[(2S)-1-methyl-2-pyrrolidinyl]methyl}oxy)phenyl]amino}-4-pyrimidinyl)pyrazolo[1,5-a]pyridin-2-yl]phenyl}benzamide]	+++ (B) (at least one pIC50 measurement of greater than 7 against either ErbB2 or EGFR)	< 100	< 100	
COc1ccc(-c2nn3ccccc3c2-c2ccnc(Nc3ccc4c(c3)CNCC4)n2)cc1NC(=O)c1c(F)cccc1F [Example 159, 2,6-Difluoro-N-(2-(methyloxy)-5-{3-[2-(1,2,3,4-tetrahydro-7-isoquinolinylamino)-4-pyrimidinyl]pyrazolo[1,5-a]pyridin-2-yl}phenyl)benzamide]	+ (B) (no pIC50 measurement greater than 6 against either ErbB2 or EGFR)	> 1000	> 1000	
O=C(Nc1cccc(-c2nn3ccccc3c2-c2ccnc(Nc3ccc(N4CCCC4=O)cc3)n2)c1)c1cc(F)ccc1F [Example 50, 2,5-Difluoro-N-{3-[3-(2-{[4-(2-oxo-1-pyrrolidinyl)phenyl]amino}-4-pyrimidinyl)pyrazolo[1,5-a]pyridin-2-yl]phenyl}benzamide]		100 to 1000	> 1000	+++ (A) (at least one pIC50 measurement of greater than 7 against either ErbB2 or EGFR)
CCN1CCN(c2ccc(Nc3nccc(-c4c(-c5cccc(NC(=O)c6c(F)cccc6F)c5)nn5ccccc45)n3)cc2)CC1 [Example 107, N-{3-[3-(2-{[4-(4-ethyl-1-piperazinyl)phenyl]amino}-4-pyrimidinyl)pyrazolo[1,5-a]pyridin-2-yl]phenyl}-2,6-difluorobenzamide]	+++ (B) (at least one pIC50 measurement of greater than 7 against either ErbB2 or EGFR)	< 100	< 100	
O=C(Nc1cccc(-c2nn3ccccc3c2-c2ccnc(Nc3ccc(OCCN4CCCC4=O)c(F)c3)n2)c1)c1c(F)cccc1F [Example 133, 2,6-Difluoro-N-[3-(3-{2-[(3-fluoro-4-{[2-(2-oxo-1-pyrrolidinyl)ethyl]oxy}phenyl)amino]-4-pyrimidinyl}pyrazolo[1,5-a]pyridin-2-yl)phenyl]benzamide]	+++ (B) (at least one pIC50 measurement of greater than 7 against either ErbB2 or EGFR)	< 100	100 to 1000	
O=C(Nc1cccc(-c2nn3ccccc3c2-c2ccnc(Nc3ccccc3)n2)c1)c1cc(F)ccc1F [Example 43, 2,5-Difluoro-N-(3-{3-[2-(phenylamino)-4-pyrimidinyl]pyrazolo[1,5-a]pyridin-2-yl}phenyl)benzamide]		100 to 1000	> 1000	+++ (A) (at least one pIC50 measurement of greater than 7 against either ErbB2 or EGFR)
O=C(Nc1cccc(-c2nn3ccccc3c2-c2ccnc(Nc3ccc(N4CCOCC4)cc3)n2)c1)c1cc(F)ccc1F [Example 45, 2,5-Difluoro-N-{3-[3-(2-{[4-(4-morpholinyl)phenyl]amino}-4-pyrimidinyl)pyrazolo[1,5-a]pyridin-2-yl]phenyl}benzamide]		< 100	100 to 1000	+++ (A) (at least one pIC50 measurement of greater than 7 against either ErbB2 or EGFR)
O=C(Nc1cccc(-c2nn3ccccc3c2-c2ccnc(Nc3ccc4c(c3)OCCO4)n2)c1)c1ccccc1 [Example 4, N-(3-{3-[2-(2,3-Dihydro-benzo[1,4]dioxin-6-ylamino)-pyrimidin-4-yl]-pyrazolo[1,5-]pyridin-2-yl}-phenyl)-benzamide]		< 100	100 to 1000	+++ (A) (at least one pIC50 measurement of greater than 7 against either ErbB2 or EGFR)
O=C(Nc1cccc(-c2nn3ccccc3c2-c2ccnc(Nc3cccc(F)c3)n2)c1)c1cc(F)ccc1Cl [Example 11, 2-Chloro-5-fluoro-N-(3-{3-[2-(3-fluoro-phenylamino)-pyrimidin-4-yl]-pyrazolo[1,5-a]pyridin-2-yl}-phenyl)-benzamide]	+++ (B) (at least one pIC50 measurement of greater than 7 against either ErbB2 or EGFR)	100 to 1000	> 1000	
C=CCN(C)CCOc1cccc(Nc2nccc(-c3c(-c4cccc(NC(=O)c5cc(F)ccc5F)c4)nn4ccccc34)n2)c1 [Example 196, 2,5-Difluoro-N-{3-[3-(2-{[3-({2-[methyl(2-propen-1-yl)amino]ethyl}oxy)phenyl]amino}-4-pyrimidinyl)pyrazolo[1,5-a]pyridin-2-yl]phenyl}benzamide]	+++ (B) (at least one pIC50 measurement of greater than 7 against either ErbB2 or EGFR)	< 100	100 to 1000	
CC(=O)Nc1cccc(Nc2nccc(-c3c(-c4cccc(NC(=O)c5cc(F)ccc5F)c4)nn4ccccc34)n2)c1 [Example 47, N-{3-[3-(2-{[3-(acetylamino)phenyl]amino}-4-pyrimidinyl)pyrazolo[1,5-a]pyridin-2-yl]phenyl}-2,5-difluorobenzamide]		100 to 1000	> 1000	+++ (A) (at least one pIC50 measurement of greater than 7 against either ErbB2 or EGFR)
CN1CCN(CCOc2ccc(Nc3nccc(-c4c(-c5cccc(NC(=O)c6c(F)cccc6F)c5)nn5ccccc45)n3)cc2)CC1 [Example 106, 2,6-Difluoro-N-[3-(3-{2-[(4-{[2-(4-methyl-1-piperazinyl)ethyl]oxy}phenyl)amino]-4-pyrimidinyl}pyrazolo[1,5-a]pyridin-2-yl)phenyl]benzamide]		< 100	100 to 1000	+++ (A) (at least one pIC50 measurement of greater than 7 against either ErbB2 or EGFR)
O=C(Nc1cccc(-c2nn3ccccc3c2-c2ccnc(Nc3cccc(OCCN4CCOCC4)c3)n2)c1)c1c(F)cccc1F [Example 60, 2,6-Difluoro-N-[3-(3-{2-[(3-{[2-(4-morpholinyl)ethyl]-oxy}phenyl)amino]-4-pyrimidinyl}pyrazolo[1,5-a]pyridin-2-yl)phenyl]benzamide]	+++ (B) (at least one pIC50 measurement of greater than 7 against either ErbB2 or EGFR)	< 100	100 to 1000	
